Source: patent US10233161B2, “Pharmaceutical compositions and salts of a 1,2,4-oxadiazole benzoic acid” (PTC Therapeutics, Inc., priority 2014, dated 2019)

Columns and labels:
[1] = Dynamic Vapor Sorption (DVS) / hygroscopicity; type: physicochemical; settings: for DVS behaviour (figure legend): FIG. 17-21; for DVS result: Table 4; for Hygroscopicity (class): classified according to the European Pharmacopoeia; for DVS water uptake: from 80% to 95% r.h. (equilibrium reached); for Hygroscopicity (mass change): mass change in the range 0→85% r.h.; for DVS mass remaining higher than the original mass: upon lowering the relative humidity again (to 50% r.h.)
Description: DVS measurements (50%→0%→95%→50% r.h.) were performed on the samples of potassium salt 1, sodium salt 1, tromethamine salt 1, L-lysine salt and magnesium salt 2.

[2] = Crystallinity estimated from PXRD; type: physicochemical; design: key: +++ = high; ++ = good; + low
[3] = Aqueous solubility determination of salts; type: physicochemical; settings: for pH (aqueous solubility): pH at aqueous solubility; for pH / Solubility: Table 10; for pH: pH of the filtrate; for Solubility: 500 rpm, free acid by HPLC
Description: Each salt was suspended in water and shaken for 24 h at 25° C. and 500 rpm. The resulting suspensions were filtered (0.1 μm filter). The obtained solid residues were analyzed by FT-Raman. The pH of the filtrate was measured, and the concentration of the free acid was determined by HPLC.

[4] = Comparative equilibrium solubility study of micronized and non-micronized Compound 1; type: physicochemical
Description: Objective: The purpose of this study was to evaluate the solubility of micronized and non-micronized Compound 1. The solubility study was conducted in two representative media in pH 1 (0.1 N HCl with 0.5% sodium lauryl sulfate) and in pH 7.4 (0.1M phosphate buffered saline). The experiment further compared the initial rate of dissolution and equilibrium solubilities of micronized and non-micronized Compound 1 over a period of time.
Solubility measurement procedure comprised the steps of: 1) weighing and mixing approximately 100 mg of micronized Compound 1 and 100 mL of 0.1N HCl with 0.5% SLS into amber jar 1; 2) weighing and mixing approximately 100 mg of micronized Compound 1 and 100 mL of PBS into amber jar 2; 3) weighing and mixing approximately 100 mg of non-micronized Compound 1 and 100 mL of 0.1N HCl with 0.5% SLS into amber jar 3; 4) weighing and mixing approximately 100 mg of non-micronized Compound 1 and 100 mL of PBS into amber jar 4; 5) mixing all samples in their respective amber jars using a multi purpose rotator for 2 hours; 4) sampling at 5 minutes, 10 minutes, 30 minutes, 60 minutes, 90 minutes, 120 minutes; 5) filtering the samples and 6) analyzing the filtrates using HPLC. For each time point, 10 mL of sample was drawn using a 10 mL syringe with a needle attached filter and using a syringe-top 0.45 μm PTFE syringe filter. The first 9 mL of the samples collected were put back into the original amber jar and then remaining 1 mL was transferred to HPLC vial for analysis.

[5] = tested on: nonsense mutation in the mouse PAX6 gene; test: Nonsense mutation mouse model of aniridia (PAX6^Sey+/−); type: in vivo
Description: Compound 1 was administered subcutaneously to PAX6 mutant and wild-type mice for 10 days (Postnatal Day 4-14) or administered topically as an ophthalmic suspension formulation (0.9% sodium chloride, 1% Tween 80, 1% powdered Compound 1, 1% carboxymethylcellulose), twice per day for 46 days (Postnatal Day 14-60). […] In the untreated mutant mouse group, progressive in-folding of the retina and abnormally small lenses was observed.
(§1) Additional successful results were achieved after topical administration of Compound 1 directly into the eye as an ophthalmic suspension formulation (0.9% sodium chloride, 1% Tween 80, 1% powdered Compound 1, 1% carboxymethylcellulose). The lens and retinal defects, observed in the untreated eyes, reversed in the Compound 1-treated mutant mice and closely resembled wild-type mice (FIG. 36B). […] Treatment with Compound 1 caused an increase in the PAX6 protein by 90% in the corneal and retinal epithelium protein lysates compared to wild-type mice (FIG. 36C) as measured by enzyme-linked immunosorbent assay (ELISA).
As a test for effects on visual acuity in the mice, the optokinetic tracking response was measured, which is a behavioural response mediated through the retina-brain circuitry.

[6] = tested on: splice-site mutation in PAX6 (PAX6^Sey-1Neu); test: Mouse model containing a splice-site mutation in PAX6 (PAX6^Sey-1Neu); type: in vivo
From the text: as §1

[7] = subcutaneous, 10 days (Postnatal Day 4-14), PAX6 mutant mice
[8] = topical 1% ophthalmic suspension

Compound	DVS behaviour (figure legend) [1]	DVS result [1]	Hygroscopicity (class) [1]	DVS water uptake [1]	Hygroscopicity (mass change) [1]	DVS mass remaining higher than the original mass [1] [wt. %]	Crystallinity [2]	Aqueous solubility ([3]; Table 2, water, 24 h, 25° C.) [mg/mL]	Aqueous solubility ([3]; Table 4) [mg/mL]	pH (aqueous solubility) ([3]; Table 4)	pH [3]	Solubility ([3]; water, 24 h, 25° C.) [mg/mL]	further results
O=C([O-])c1cccc(-c2noc(-c3ccccc3F)n2)c1.[K+] [Potassium salt 1]	small irreversible water uptake	H not detected; DVS: hygroscopic sample, hydrate formation; (increase of the mass is less than 15% and equal or greater than 2%)	(hygroscopic) (increase of the mass is less than 15% and equal or greater than 2%)	roughly 3 wt. %	+7.81 wt %	~1	+	57	57.00	9.2	9.2	57	DVS mass loss ([1]; humidity decreased to 0% r.h. (equilibrium not reached)): ~6 wt. %; DVS water uptake (mass change) ([1]; humidity further increased to 80% r.h.): ~1.5 wt. %
O=C([O-])c1cccc(-c2noc(-c3ccccc3F)n2)c1.[Na+] [Sodium salt 1]	stepwise irreversible water uptake	acidic H not detected; DVS: hygroscopic sample, hydrate (increase of the mass is less than 15% and equal or greater than 2%)	(very hygroscopic) (increase of the mass ≥15%)	–	+19.52 wt %	~16	++	22	22.22	8.3	8.3	22	DVS reversible mass change ([1]; 50% to 0% r.h. and again to 50% r.h.): 2 wt. %; DVS water uptake in one step ([1]; from 50% to 62% r.h.): Approximately 10 wt. %; DVS further water uptake, second step ([1]; humidity increased to 80% r.h. (equilibrium not reached)): ~6 wt. %; DVS water uptake up to 95% r.h. ([1]; humidity increased to 95% r.h.): 20 wt. %
NC(CO)(CO)CO.O=C(O)c1cccc(-c2noc(-c3ccccc3F)n2)c1 [Tromethamine salt 1]	large reversible water uptake with hysteresis	hygroscopic sample; Aqueous solubility (increase of the mass is less than 15% and equal or greater than 2%)	(hygroscopic) (increase of the mass is less than 15% and equal or greater than 2%)	~25 wt. %	+3.59 wt %	–	+++	18	–	–	8.1	18	DVS weight loss to a value lower than the original mass ([1]; below 70% r.h. on the way down): 3 wt. %; DVS mass change ([1]; humidity decreased to 0% r.h. and then raised to 80% r.h.): no significant mass change; DVS overall weight loss ([1]; whole DVS cycle): 3%
O=C(O)c1cccc(-c2noc(-c3ccccc3F)n2)c1 [Compound 1, 3-[5-(2-fluoro-phenyl)-[1,2,4]oxadiazol-3-yl]-benzoic acid]	–	–	–	–	–	–	–	–	–	–	–	–	Time at which solubility equilibrium was reached ([4]; pH 1 media): approximately 30 minutes; Time at which equilibrium solubility was reached ([4]; pH 7.4 media): approximately 2 hours; Optokinetic tracking response (visual acuity) ([5]; spatial frequency threshold, treated mutant mice): significant improvement in the spatial frequency threshold; Increase of the size of the lens [5, 7]: 70%; Retinal in-folding [5, 7]: corrected the retinal in-folding; Disease progression and malformation ([5]; summary for the aniridia model): inhibited disease progression and reversed malformation in the cornea, lens and retina; Histological examination of the cornea [5, 8]: decreased corneal thickening; Retina response to light stimulation [5, 8]: increased response to light stimulation; Lens and retinal defects ([5]; topical 1% ophthalmic suspension, twice per day, Postnatal Day 14-60): reversed; Increase in the PAX6 protein ([5]; topical 1% ophthalmic suspension, corneal and retinal epithelium protein lysates, ELISA): 90%; Response to therapy [6]: did not show a response
